Assay: Peripheral MTII administration: food consumption in MC-3R−/− and WT mice
Details: single intraperitoneal injection, 10 mg/kg, n=9
From the text: Food intake measurements—MC-3R^−/−, MC-3R^+/−, and WT mice were separated into individual microisolator cages at approximately one month of age. For studies involving regular mouse chow (Teklad 7012; 5% fat, 19% protein, and 5% of fiber; 3.75 grams/Kcal and 14.8% Kcal. from fat), pellet food was provided in wire cage tops containing food hoppers and food was weighed weekly. For studies involving a high fat diet (Teklad 97070; 33.5% fat, 27.4% protein, and 26.5% carbohydrates; 60% calories from fat), ground food was provided in a glass jar located in the cage and the jar containing the food was weighed either daily or weekly.
Peripheral MTII administration—For seven consecutive days, individually-housed 23-25-week-old male MC-3R^−/− (n=9) and WT (n=9) mice received an intraperitoneal (ip) injection of a sterile 0.9% NaCl vehicle solution approximately 30 min before the onset of the dark phase of the light cycle. At the same time on the eighth consecutive day of the study, mice received an ip injection of MTII at a dose of 10 mg/kg delivered in vehicle. Body and food (Teklad 7012) weights were measured and recorded daily approximately 15 min prior to injection.

Substance: MTII
- reduction of food consumption over a 24-h period relative to a 2-day vehicle treatment baseline (male MC-3R−/− mice): 16.9±7.0 % reduction
- reduction of food consumption over a 24-h period relative to a 2-day vehicle treatment baseline (male WT mice): 11.1±4.3 % reduction

— patent US7321074B1, “Melanocortin-3 receptor deficient cells, non-human transgenic animals and methods of selecting compounds which regulate body weight” (Merck & Co., Inc., priority 1999, dated 2008)
